ChEMBL document CHEMBL1146387, “A new class of anti-MRSA and anti-VRE agents: preparation and antibacterial activities of indole-containing compounds” (2007)
In brackets after ≈: the same amount, converted by molar mass.

Key:
Assay type in all cases: functional
[1] = tested on: Staphylococcus aureus; assay: Antibacterial activity against methicillin-resistant Staphylococcus aureus MF535
[2] = tested on: Enterococcus faecium; assay: Antibacterial activity against vancomycin-resistant Enterococcus faecium VRA
[3] = tested on: Enterococcus faecium; assay: Antibacterial activity against Enterococcus faecium ATCC 19434
[4] = tested on: Staphylococcus aureus; assay: Antibacterial activity against methicillin-susceptible Staphylococcus aureus 209P

SMILES | MIC [1] [µg/mL] | MIC [2] [µg/mL] | MIC [3] [µg/mL] | MIC [4] [µg/mL]
CC(=O)NCCc1c(C(c2cccc(Br)c2)c2c(O)c3ccccc3oc2=O)[nH]c2ccccc12 (configuration not stated) | > 128 | > 128 | > 128 | > 128
O=C(OCCc1c(C(c2ccccc2)c2c(O)c3ccccc3oc2=O)[nH]c2ccccc12)c1ccccc1 (configuration not stated) | 8 (≈ 15.5 µM) | 16 (≈ 31 µM) | 16 (≈ 31 µM) | 8 (≈ 15.5 µM)
COc1ccccc1C(=O)OCCc1c(C(c2cccc(Br)c2)c2c(O)cc(C)oc2=O)[nH]c2ccccc12 (configuration not stated) | 64 (≈ 109 µM) | 64 (≈ 109 µM) | 64 (≈ 109 µM) | 32 (≈ 54.4 µM)
COc1ccc(C(c2[nH]c3ccccc3c2CCOC(=O)c2ccccc2)c2c(O)c3ccccc3oc2=O)cc1 (configuration not stated) | 8 (≈ 14.7 µM) | 16 (≈ 29.3 µM) | 16 (≈ 29.3 µM) | 8 (≈ 14.7 µM)
Cn1c(=O)c(C(c2ccc(C(F)(F)F)cc2)c2[nH]c3ccccc3c2CCNS(=O)(=O)c2ccccc2)c(O)c2ccccc21 (configuration not stated) | 1 (≈ 1.58 µM) | 2 (≈ 3.17 µM) | 4 (≈ 6.33 µM) | 1 (≈ 1.58 µM)
O=C(OCCc1c(C(c2ccc(OC(F)(F)F)cc2)c2c(O)c3ccccc3oc2=O)[nH]c2ccccc12)c1ccccc1 (configuration not stated) | 2 (≈ 3.34 µM) | 0.5 (≈ 0.834 µM) | 0.5 (≈ 0.834 µM) | 2 (≈ 3.34 µM)
COc1ccccc1C(=O)OCCc1c(C(c2cncc(Br)c2)c2c(O)c3ccccc3oc2=O)[nH]c2ccccc12 (configuration not stated) | 128 (≈ 205 µM) | 128 (≈ 205 µM) | 128 (≈ 205 µM) | 64 (≈ 102 µM)
CC(=O)NCCc1c(C(c2cccc(Br)c2)c2c(O)c3ccccc3n(C)c2=O)[nH]c2ccccc12 (configuration not stated) | 32 (≈ 58.8 µM) | > 128 | > 128 | 32 (≈ 58.8 µM)
COc1ccccc1C(=O)OCCc1c(C(c2cccc(Br)c2)c2c(O)c3ccccc3n(C)c2=O)[nH]c2ccccc12 (configuration not stated) | > 128 | > 128 | > 128 | > 128
O=C(OCCc1c(C(c2cccc(C(F)(F)F)c2)c2c(O)c3ccccc3oc2=O)[nH]c2ccccc12)c1ccccc1 (configuration not stated) | 4 (≈ 6.85 µM) | 1 (≈ 1.71 µM) | 2 (≈ 3.43 µM) | 4 (≈ 6.85 µM)
CSc1ccc(C(c2[nH]c3ccccc3c2CCOC(=O)c2ccccc2)c2c(O)c3ccccc3oc2=O)cc1 (configuration not stated) | 8 (≈ 14.2 µM) | 4 (≈ 7.12 µM) | 4 (≈ 7.12 µM) | 4 (≈ 7.12 µM)
Cc1ccc(C(c2[nH]c3ccccc3c2CCOC(=O)c2ccccc2)c2c(O)c3ccccc3oc2=O)cc1 (configuration not stated) | 4 (≈ 7.55 µM) | 8 (≈ 15.1 µM) | 8 (≈ 15.1 µM) | 4 (≈ 7.55 µM)
Cn1c(=O)c(C(c2cccc(Br)c2)c2[nH]c3ccccc3c2CCOC(=O)c2ccccc2)c(O)c2ccccc21 (configuration not stated) | 2 (≈ 3.29 µM) | > 128 | > 128 | 1 (≈ 1.65 µM)
Cn1c(=O)c(C(c2cccc(Br)c2)c2[nH]c3ccccc3c2CCOC(=O)Cc2ccccc2)c(O)c2ccccc21 (configuration not stated) | > 128 | > 128 | > 128 | 64 (≈ 103 µM)
O=C(OCCc1c(C(c2cccc(F)c2)c2c(O)c3ccccc3oc2=O)[nH]c2ccccc12)c1ccccc1 (configuration not stated) | 8 (≈ 15 µM) | 8 (≈ 15 µM) | 8 (≈ 15 µM) | 4 (≈ 7.5 µM)
Cc1cccc(C(c2[nH]c3ccccc3c2CCOC(=O)c2ccccc2)c2c(O)c3ccccc3oc2=O)c1 (configuration not stated) | 8 (≈ 15.1 µM) | 4 (≈ 7.55 µM) | 8 (≈ 15.1 µM) | 8 (≈ 15.1 µM)
O=C(OCCc1c(C(c2ccc(Br)cc2)c2c(O)c3ccccc3oc2=O)[nH]c2ccccc12)c1ccccc1 (configuration not stated) | 2 (≈ 3.36 µM) | 2 (≈ 3.36 µM) | 2 (≈ 3.36 µM) | 2 (≈ 3.36 µM)
Cn1c(=O)c(C(c2ccc(C(F)(F)F)cc2)c2[nH]c3ccccc3c2CCOC(=O)c2ccccc2)c(O)c2ccccc21 (configuration not stated) | 1 (≈ 1.68 µM) | 8 (≈ 13.4 µM) | 8 (≈ 13.4 µM) | 0.5 (≈ 0.838 µM)

SMILES | MIC [1] [µg/mL] | MIC [2] [µg/mL] | MIC [3] [µg/mL] | MIC [4] [µg/mL]
Cn1c(=O)c(C(c2ccc(C(F)(F)F)cc2)c2[nH]c3ccccc3c2CCNC(=O)c2ccccc2)c(O)c2ccccc21 (configuration not stated) | 16 (≈ 26.9 µM) | 16 (≈ 26.9 µM) | 16 (≈ 26.9 µM) | 8 (≈ 13.4 µM)
Cn1c(=O)c(C(c2ccc(C(F)(F)F)cc2)c2[nH]c3ccccc3c2CCOC(=O)Cc2ccccc2)c(O)c2ccccc21 (configuration not stated) | 1 (≈ 1.64 µM) | > 128 | > 128 | 1 (≈ 1.64 µM)
Cn1c(=O)c(C(c2ccc(C(F)(F)F)cc2)c2[nH]c3ccccc3c2CCOC(=O)C2CCCCC2)c(O)c2ccccc21 (configuration not stated) | 1 (≈ 1.66 µM) | 1 (≈ 1.66 µM) | 2 (≈ 3.32 µM) | 1 (≈ 1.66 µM)
CN(C(=O)NCCc1c(C(c2ccc(C(F)(F)F)cc2)c2c(O)c3ccccc3n(C)c2=O)[nH]c2ccccc12)c1ccccc1 (configuration not stated) | 1 (≈ 1.6 µM) | 1 (≈ 1.6 µM) | 2 (≈ 3.2 µM) | 1 (≈ 1.6 µM)
Cn1c(=O)c(C(c2ccc(OC(F)(F)F)cc2)c2[nH]c3ccccc3c2CCOC(=O)c2ccccc2)c(O)c2ccccc21 (configuration not stated) | 1 (≈ 1.63 µM) | > 128 | > 128 | 0.5 (≈ 0.816 µM)
Cn1c(=O)c(C(c2ccc(OC(F)(F)F)cc2)c2[nH]c3ccccc3c2CCOC(=O)Cc2ccccc2)c(O)c2ccccc21 (configuration not stated) | 1 (≈ 1.6 µM) | 2 (≈ 3.19 µM) | 32 (≈ 51.1 µM) | 1 (≈ 1.6 µM)
Cn1c(=O)c(C(c2ccc(OC(F)(F)F)cc2)c2[nH]c3ccccc3c2CCOC(=O)C2CCCCC2)c(O)c2ccccc21 (configuration not stated) | 1 (≈ 1.62 µM) | 2 (≈ 3.23 µM) | 2 (≈ 3.23 µM) | 1 (≈ 1.62 µM)
O=C(OCCc1c(C(c2ccc(OC(F)(F)F)cc2)c2c(O)c3cc(Cl)ccc3oc2=O)[nH]c2ccccc12)c1ccccc1 (configuration not stated) | 2 (≈ 3.15 µM) | 1 (≈ 1.58 µM) | 1 (≈ 1.58 µM) | 2 (≈ 3.15 µM)
O=C(OCCc1c(C(c2ccc(C(F)(F)F)cc2)c2c(O)c3ccccc3oc2=O)[nH]c2ccccc12)c1ccccc1 (configuration not stated) | 2 (≈ 3.43 µM) | 2 (≈ 3.43 µM) | 2 (≈ 3.43 µM) | 2 (≈ 3.43 µM)
COc1ccccc1C(=O)OCCc1c(C(c2cccc(Br)c2)c2c(O)c3ccccc3oc2=O)[nH]c2ccccc12 (configuration not stated) | 8 (≈ 12.8 µM) | 8 (≈ 12.8 µM) | 8 (≈ 12.8 µM) | 4 (≈ 6.41 µM)
COc1ccccc1C(=O)NCCc1c(C(c2cccc(Br)c2)c2c(O)c3ccccc3oc2=O)[nH]c2ccccc12 (configuration not stated) | 16 (≈ 25.7 µM) | 32 (≈ 51.3 µM) | 32 (≈ 51.3 µM) | 8 (≈ 12.8 µM)
O=C(OCCc1c(C(c2cccc(Br)c2)c2c(O)c3ccccc3oc2=O)[nH]c2ccccc12)c1ccccc1 (configuration not stated) | 4 (≈ 6.73 µM) | 4 (≈ 6.73 µM) | 4 (≈ 6.73 µM) | 4 (≈ 6.73 µM)
CC(=O)OCCc1c(C(c2cccc(Br)c2)c2c(O)c3ccccc3n(C)c2=O)[nH]c2ccccc12 (configuration not stated) | 16 (≈ 29.3 µM) | 32 (≈ 58.7 µM) | 64 (≈ 117 µM) | 16 (≈ 29.3 µM)
Cn1c(=O)c(C(c2ccc(OC(F)(F)F)cc2)c2[nH]c3ccccc3c2CCNC(=O)c2ccccc2)c(O)c2ccccc21 (configuration not stated) | 128 (≈ 209 µM) | > 128 | > 128 | 8 (≈ 13.1 µM)
CC(=O)OCCc1c(C(c2cccc(Br)c2)c2c(O)c3ccccc3oc2=O)[nH]c2ccccc12 (configuration not stated) | 32 (≈ 60.1 µM) | 32 (≈ 60.1 µM) | 64 (≈ 120 µM) | 32 (≈ 60.1 µM)
CC(=O)NC[C@H]1CN(c2ccc(N3CCOCC3)c(F)c2)C(=O)O1 [LINEZOLID] | 1 (≈ 2.96 µM) | 2 (≈ 5.93 µM) | 2 (≈ 5.93 µM) | 1 (≈ 2.96 µM)
CN[C@H](CC(C)C)C(=O)N[C@H]1C(=O)N[C@@H](CC(N)=O)C(=O)N[C@H]2C(=O)N[C@H]3C(=O)N[C@H](C(=O)N[C@H](C(=O)O)c4cc(O)cc(O)c4-c4cc3ccc4O)[C@H](O)c3ccc(c(Cl)c3)Oc3cc2cc(c3O[C@@H]2O[C@H](CO)[C@@H](O)[C@H](O)[C@H]2O[C@H]2C[C@](C)(N)[C@H](O)[C@H](C)O2)Oc2ccc(cc2Cl)[C@H]1O [VANCOMYCIN] | – | > 128 | – | –
